Laboratory results taken from patent publication US4009273A, “Substituted 10,11-dihydro-5,10-imino-[5H] dibenzo (a,d)-cycloheptene” (priority 1972, dated 1977).
“And” between values parts separate entries of the source, which are not always exact repeats. Equal values may be shown once.

Columns and labels:
[1] = system: amphetamine deaths; experiment: Amphetamine toxicity in mice; type: in vivo, mice (female); conditions: mortality at 4 h
Procedure: The test was effected on group of 10 female mice weighing between 18 and 22 g kept at 27° C for the duration of the test. The test products were intraperitoneally administered in different doses in a volume of 0.01 ml /g of mouse. One hour later, the mice received an injection of 15 mg/kg of a solution of 1.5 mg of amphetamine per ml of physiological serum. The mortality 4 hours after the amphetamine injection was determined and the results were expressed as a ratio of number of dead animals to number of starting animals.

[2] = Acute toxicity; conditions: mouse, in vivo, ip, Swiss mice, observed for a week
Procedure: The acute toxicity was determined on groups of Swiss mice weighing 18 to 22 g and the test products were administered intraperitoneally in increasing doses and the animals were kept under observation for a week.

[3] = system: pentamethylenetetrazol convulsions; experiment: Anticonvulsant effect (pentamethylenetetrazol perfusion); type: in vivo, mice (female); conditions: 1 h before perfusion
Procedure: The anticonvulsant activity of the compounds was determined on groups of 10 female mice with intraperitoneal administration of the test compounds in acid solution at different doses and the control group received only the solvent. One hour after the injection, the mice were perfused with a solution of pentamethylenetetrazol in physiological serum at a concentration of 3 mg/ml. The perfusion was intraveinous at a rate of 1 ml per minute and in the course of the perfusion, the progress of introxication was characterized by the following 3 criteria:
a. Threshold of convulsant effect (myoclonia of the ears)
b. Crisis of clonic convulsions
c. Tonic convulsion with apnea and generally followed by death.

[4] = system: DOPA; experiment: Potentialization of DOPA; type: in vivo, mice (male); conditions: 1 h before 50 mg/kg DOPA
Procedure: In this test, DOPA [racemic β-(3,4-dihydroxyphenyl)-alanine] was administered to mice pretreated with 1-isonicotinoyl-2-isopropyl-hydrazine18 hours before the test which product caused the following symptoms: hypertonicity, agitation, crying, aggressiveness, salivation and exophthalmia. The administration of an antidepressant one hour before the DOPA injection potentializes the intensity of the effects.
Male mice weighing between 18 to 22 g received intraperitoneally 50 mg/kg of 1-isonicotinoyl-2-isopropyl-hydrazine and 18 hours later the test product intraperitoneally in aqueous solution in increasing doses and 1 hour later received an intraperitoneal injection of 50 mg/kg of DOPA. The different effects were evaluated 15 and 30 minutes after the DOPA injection and each symptom was evaluated for each animal on a scale from 0 to 3 and the evaluations for each dose was totaled. The totals are reported in Table III as a percent of the total of control animals.

[5] = system: amytal sleeping time; experiment: Potentialization of sleeping time (amytal); type: in vivo, mice (female); conditions: 1 h before 80 mg/kg amytal i.v.
Procedure: The potentialization of sleeping time was determined with a test using amytal [5-ethyl-5-isoamyl-barbituric acid] in which groups of female mice weighing between 18 and 22 g were kept at 25° C for the duration of the test. The test products were administered intraperitoneally at different doses one hour before intraveinous injection of 80 mg/kg of amytal and the sleeping time was noted which is the time while the reflux of straightening in the mice was negative.

[6] = 5 mg/Kg i.p., 1 h before 15 mg/kg amphetamine
[7] = 10 mg/Kg i.p., 1 h before 15 mg/kg amphetamine
[8] = 20 mg/Kg i.p., 1 h before 15 mg/kg amphetamine
[9] = head prints only "mg/Kg" (dose figure missing), i.p.

OCCN1C2Cc3ccccc3C1c1ccccc12 (stereo not drawn) [Example 6, 12-(2'-hydroxyethyl)-10,11-dihydro-5,10-imino-[5H]-dibenzo (a,d) cycloheptene dl]
ratio of number of dead animals to number of starting animals [1, 6]: 3/10 | ratio of number of dead animals to number of starting animals [1, 7]: 9/10 and 3/10 | ratio of number of dead animals to number of starting animals [1, 8]: 0/10 | LD50 at 168 h [2]: 350 mg/kg | Dose of pentamethylenetetrazol, Clonic Crisis ([3]; 0.5 mg/Kg i.p.): 42.9 mg/kg | Dose of pentamethylenetetrazol, Myoclonia ([3]; 0.5 mg/Kg i.p.): 38.2 mg/kg | Dose of pentamethylenetetrazol, Tonic Crisis ([3]; 0.5 mg/Kg i.p.): 129.0 mg/kg | Dose of pentamethylenetetrazol, Clonic Crisis ([3]; 1 mg/Kg i.p.): 45.7 mg/kg | Dose of pentamethylenetetrazol, Myoclonia ([3]; 1 mg/Kg i.p.): 40.6 mg/kg | Dose of pentamethylenetetrazol, Tonic Crisis ([3]; 1 mg/Kg i.p.): 144.2 mg/kg | Dose of pentamethylenetetrazol, Clonic Crisis ([3]; 2 mg/Kg i.p.): 43.5 mg/kg | Dose of pentamethylenetetrazol, Myoclonia ([3]; 2 mg/Kg i.p.): 38.6 mg/kg | Dose of pentamethylenetetrazol, Tonic Crisis ([3]; 2 mg/Kg i.p.): 104.3 mg/kg | Dose of pentamethylenetetrazol, Clonic Crisis ([3]; 5 mg/Kg i.p.): 45.5 mg/kg | Dose of pentamethylenetetrazol, Myoclonia ([3]; 5 mg/Kg i.p.): 49.3 mg/kg | Dose of pentamethylenetetrazol, Tonic Crisis ([3]; 5 mg/Kg i.p.): 204.6 mg/kg | total symptom score as percent of the total of control animals ([4]; 1 mg/Kg i.p.): 138% | total symptom score as percent of the total of control animals ([4]; 2 mg/Kg i.p.): 155% | total symptom score as percent of the total of control animals ([4]; 10 mg/Kg i.p.): 140%

CC(=O)CN1C2Cc3ccccc3C1c1ccccc12 (stereo not drawn) [Example 7, 12-acetonyl-10,11-dihydro-5,10-imino-[5H]-dibenzo (a,d) cycloheptene dl]
ratio of number of dead animals to number of starting animals [1, 6]: 2/10 | ratio of number of dead animals to number of starting animals [1, 7]: 0/10 | ratio of number of dead animals to number of starting animals [1, 8]: 0/10 | ratio of number of dead animals to number of starting animals [1, 9]: 0/10 | LD50 at 168 h [2]: 350 mg/kg | average sleeping time ([5]; 5 mg/Kg i.p.): 31.3 min | average sleeping time ([5]; 10 mg/Kg i.p.): 51.2 min | average sleeping time ([5]; 20 mg/Kg i.p.): 82.3 min | average sleeping time ([5]; 50 mg/Kg i.p.): 107.5 min | Dose of pentamethylenetetrazol, Clonic Crisis ([3]; 0.5 mg/Kg i.p.): 53.3 mg/kg | Dose of pentamethylenetetrazol, Myoclonia ([3]; 0.5 mg/Kg i.p.): 48.6 mg/kg | Dose of pentamethylenetetrazol, Tonic Crisis ([3]; 0.5 mg/Kg i.p.): 119.2 mg/kg | Dose of pentamethylenetetrazol, Clonic Crisis ([3]; 1 mg/Kg i.p.): 52.7 mg/kg | Dose of pentamethylenetetrazol, Myoclonia ([3]; 1 mg/Kg i.p.): 47.7 mg/kg | Dose of pentamethylenetetrazol, Tonic Crisis ([3]; 1 mg/Kg i.p.): 172.5 mg/kg | Dose of pentamethylenetetrazol, Clonic Crisis ([3]; 2 mg/Kg i.p.): 62.6 mg/kg | Dose of pentamethylenetetrazol, Myoclonia ([3]; 2 mg/Kg i.p.): 57.7 mg/kg | Dose of pentamethylenetetrazol, Tonic Crisis ([3]; 2 mg/Kg i.p.): 172.5 mg/kg | Dose of pentamethylenetetrazol, Clonic Crisis ([3]; 5 mg/Kg i.p.): 112.5 mg/kg | Dose of pentamethylenetetrazol, Myoclonia ([3]; 5 mg/Kg i.p.): 107.4 mg/kg | Dose of pentamethylenetetrazol, Tonic Crisis ([3]; 5 mg/Kg i.p.): 238.9 mg/kg | total symptom score as percent of the total of control animals ([4]; 1 mg/Kg i.p.): 114% | total symptom score as percent of the total of control animals ([4]; 2 mg/Kg i.p.): 135% | total symptom score as percent of the total of control animals ([4]; 5 mg/Kg i.p.): 138% | total symptom score as percent of the total of control animals ([4]; 10 mg/Kg i.p.): 173%

CN(C)CC(=O)N1C2Cc3ccccc3C1c1ccccc12 (stereo not drawn) [Example 14, 12-dimethylaminoacetyl-10,11-dihydro-5,10-imino-[5H]-dibenzo (a,d) cycloheptene dl]
LD50 at 168 h [2]: 150 mg/kg | total symptom score as percent of the total of control animals ([4]; 10 mg/Kg i.p.): 117% | total symptom score as percent of the total of control animals ([4]; 20 mg/Kg i.p.): 160% | total symptom score as percent of the total of control animals ([4]; 50 mg/Kg i.p.): 196%

CCN1C2Cc3ccccc3C1c1ccccc12 (stereo not drawn) [Example 21, 12-ethyl-10,11-dihydro-5,10-imino-[5H]-dibenzo (a,d) cycloheptene dl]
ratio of number of dead animals to number of starting animals [1, 6]: 10/10 | ratio of number of dead animals to number of starting animals [1, 7]: 6/10 | ratio of number of dead animals to number of starting animals [1, 8]: 0/10 | ratio of number of dead animals to number of starting animals [1, 9]: 0/10 | average sleeping time ([5]; 1 mg/Kg i.p.): 32.1 min | average sleeping time ([5]; 2 mg/Kg i.p.): 39.6 min | average sleeping time ([5]; 5 mg/Kg i.p.): 58.1 min | average sleeping time ([5]; 10 mg/Kg i.p.): 71.5 min | Dose of pentamethylenetetrazol, Clonic Crisis ([3]; 1 mg/Kg i.p.): 48.3 mg/kg | Dose of pentamethylenetetrazol, Myoclonia ([3]; 1 mg/Kg i.p.): 42.9 mg/kg | Dose of pentamethylenetetrazol, Tonic Crisis ([3]; 1 mg/Kg i.p.): 168.2 mg/kg | Dose of pentamethylenetetrazol, Clonic Crisis ([3]; 2 mg/Kg i.p.): 47.7 mg/kg | Dose of pentamethylenetetrazol, Myoclonia ([3]; 2 mg/Kg i.p.): 42.3 mg/kg | Dose of pentamethylenetetrazol, Tonic Crisis ([3]; 2 mg/Kg i.p.): 206.2 mg/kg | Dose of pentamethylenetetrazol, Clonic Crisis ([3]; 5 mg/Kg i.p.): 57.0 mg/kg | Dose of pentamethylenetetrazol, Myoclonia ([3]; 5 mg/Kg i.p.): 49.6 mg/kg | Dose of pentamethylenetetrazol, Tonic Crisis ([3]; 5 mg/Kg i.p.): 238.1 mg/kg | total symptom score as percent of the total of control animals ([4]; 1 mg/Kg i.p.): 187% | total symptom score as percent of the total of control animals ([4]; 2 mg/Kg i.p.): 175% | total symptom score as percent of the total of control animals ([4]; 5 mg/Kg i.p.): 181%

CN1C2Cc3ccccc3C1c1ccc(Cl)cc12 (stereo not drawn) [Example 26, 8-chloro-12-methyl-10,11-dihydro-5,10-imino-[5H]-dibenzo (a,d) cycloheptene dl]
ratio of number of dead animals to number of starting animals [1, 6]: 10/10 | ratio of number of dead animals to number of starting animals [1, 7]: 10/10 | ratio of number of dead animals to number of starting animals [1, 8]: 10/10 | ratio of number of dead animals to number of starting animals [1, 9]: 1/9 | LD50 at 168 h [2]: ~350 mg/kg | average sleeping time ([5]; 5 mg/Kg i.p.): 22.6 min | average sleeping time ([5]; 10 mg/Kg i.p.): 27.4 min | average sleeping time ([5]; 20 mg/Kg i.p.): 36.0 min | average sleeping time ([5]; 50 mg/Kg i.p.): 94.5 min | Dose of pentamethylenetetrazol, Clonic Crisis ([3]; 5 mg/Kg i.p.): 50.8 mg/kg | Dose of pentamethylenetetrazol, Myoclonia ([3]; 5 mg/Kg i.p.): 43.9 mg/kg | Dose of pentamethylenetetrazol, Tonic Crisis ([3]; 5 mg/Kg i.p.): 128 mg/kg | Dose of pentamethylenetetrazol, Clonic Crisis ([3]; 10 mg/Kg i.p.): 52.0 mg/kg | Dose of pentamethylenetetrazol, Myoclonia ([3]; 10 mg/Kg i.p.): 44.1 mg/kg | Dose of pentamethylenetetrazol, Tonic Crisis ([3]; 10 mg/Kg i.p.): 174.7 mg/kg | Dose of pentamethylenetetrazol, Clonic Crisis ([3]; 20 mg/Kg i.p.): 56.4 mg/kg | Dose of pentamethylenetetrazol, Myoclonia ([3]; 20 mg/Kg i.p.): 49.7 mg/kg | Dose of pentamethylenetetrazol, Tonic Crisis ([3]; 20 mg/Kg i.p.): 230.2 mg/kg | Dose of pentamethylenetetrazol, Clonic Crisis ([3]; 50 mg/Kg i.p.): 66.7 mg/kg | Dose of pentamethylenetetrazol, Myoclonia ([3]; 50 mg/Kg i.p.): 52.6 mg/kg | Dose of pentamethylenetetrazol, Tonic Crisis ([3]; 50 mg/Kg i.p.): 274.2 mg/kg

ClCCN1C2Cc3ccccc3C1c1ccccc12 (stereo not drawn) [Example 27, 12-(2'-chloroethyl)-10,11-dihydro-5,10-imino-[5H]-dibenzo (a,d) cycloheptene dl]
ratio of number of dead animals to number of starting animals [1, 6]: 10/10 | ratio of number of dead animals to number of starting animals [1, 7]: 8/10 | ratio of number of dead animals to number of starting animals [1, 8]: 2/10 | LD50 at 168 h [2]: ~150 mg/kg | average sleeping time ([5]; 2 mg/Kg i.p.): 21.7 min | average sleeping time ([5]; 5 mg/Kg i.p.): 42.2 min | average sleeping time ([5]; 10 mg/Kg i.p.): 44.8 min | average sleeping time ([5]; 20 mg/Kg i.p.): 83.0 min | Dose of pentamethylenetetrazol, Clonic Crisis ([3]; 2 mg/Kg i.p.): 52.9 mg/kg | Dose of pentamethylenetetrazol, Myoclonia ([3]; 2 mg/Kg i.p.): 45.9 mg/kg | Dose of pentamethylenetetrazol, Tonic Crisis ([3]; 2 mg/Kg i.p.): 163.2 mg/kg | Dose of pentamethylenetetrazol, Clonic Crisis ([3]; 5 mg/Kg i.p.): 56.7 mg/kg | Dose of pentamethylenetetrazol, Myoclonia ([3]; 5 mg/Kg i.p.): 51.5 mg/kg | Dose of pentamethylenetetrazol, Tonic Crisis ([3]; 5 mg/Kg i.p.): 229.8 mg/kg | Dose of pentamethylenetetrazol, Clonic Crisis ([3]; 10 mg/Kg i.p.): 62.1 mg/kg | Dose of pentamethylenetetrazol, Myoclonia ([3]; 10 mg/Kg i.p.): 57 mg/kg | Dose of pentamethylenetetrazol, Tonic Crisis ([3]; 10 mg/Kg i.p.): 258.2 mg/kg
